# Publication PMC12592502, “Unraveling the mechanisms behind the enhanced efficacy of β-lactam-based sideromycins” (Communications Biology, 2025)
# Where two headings read alike, the source gives them in different places.
# Legend:
# PBP2 = target: T1, PBP2 (Escherichia coli, UniProt P0AD65); assay: Membrane PBP binding assay, competition with Bocillin FL; set-up: species or system E. coli MC4100; conditions: read-out: IC50 PBP2; E. coli MC4100 membranes
# T1 construct: using bacterial membranes as the source of PBPs; endogenous in cells; host or cells: E. coli MC4100 membrane preparation
# Experimental: (§1) Membrane extracts containing PBPs were obtained as described above. Briefly, all species were grown in 1 L of TSB until the OD600 reached 0.9. The washed pellet was incubated with lysozyme (400 μg/mL), DNase (10 μg/mL) RNase(10 μg/mL) and anti-protease cocktail (200 mg/20 mL). Lysis was done with a French press (20,000 psi) and membrane protein were pelleted by ultracentrifugation steps (100,000 × g). The pellet was suspended in a minimal volume (300–500 μL) of KP 0.05 M buffer at pH 7. The protein concentration in the membrane preparations was determined with the Micro BCA TM Protein Assay Kit (Thermo Fisher Scientific, Rockford, IL) using bovine serum albumin as a standard.
# (§2) The PBP binding assay was done as described previously[36],[56],[57]. For each antibiotic concentration tested, a quantity of 25 to 40 μg of membrane preparation was used as the source of PBPs, depending on the species. For the purified PaPBP3, 150 ng was used in the assay. First, increasing concentrations of the test antibiotic was added to the membrane or purified PaPBP3 preparations and incubated for 10 min at 30 °C. The reporter molecule Bocillin FL was then added at 12.5 μM for the membrane PBPs preparations and at 500 nM for the pure PaPBP3 samples for an additional 20 min at 30 °C. All reactions were stopped with the addition of the Laemmli-loading buffer (Bio-Rad) containing fresh β-mercaptoethanol (Sigma). All reactions were then heated at 100°C for 3 min before migration on SDS-polyacrylamide discontinuous gel system (7.5% stacking and 10% separating). Control samples without Bocillin FL were also included to highlight autofluorescent proteins that are not PBPs.
# (§3) To be able to visualize labeled PBPs after electrophoresis, gels were rinsed in water and fixed in a solution of 50% methanol and 7% acetic acid for 30 min. The fluorescent images of gels were obtained with the Typhoon FLA 9500 instrument (GE-Healthcare Bio-Sciences Inc., Baie-d’Urfé, QC, CA) using a 473 nm excitation wavelength. To obtain quantifiable data, the software Quantity One 1D analysis was used (version 4.6.6; Bio-Rad Laboratories, Richmond, CA). The volume (intensity × constant area) of each PBP was measured. […] All IC50 data were obtained from at least two independent PBP binding assays using two different sets of compound concentrations using a linear regression. The PBP profiles were confirmed, and the PBP numbering were determined using published data and individual molecular weights. […] For example, amdinocillin (Sigma) was used for PBP2 identification. […] The IC50 for PBP 2 of P. aeruginosa was measured by including the SDS-PAGE comigrating autofluorescent protein in the background, as done previously.
# PBP3 = target: T2, PBP3 (Escherichia coli, UniProt P0AD68); assay: as above; set-up: species or system E. coli MC4100
# T2 construct: using bacterial membranes as the source of PBPs; endogenous in cells; host or cells: E. coli MC4100 membrane preparation
# Experimental: as §1, §2, §3
# A. baumannii ATCC 19606 = assay: MIC, broth microdilution (CLSI); type: cell-based, Acinetobacter baumannii; conditions: for MIC: Acinetobacter baumannii
# Experimental: (§4) All bacterial strains (see description and sources Table S1) were stored at −80 °C, and grown on tryptone soya agar (TSA) at 35 °C. The iron-deprived (ID)-MHBCA (cation-adjusted Muller-Hinton Broth, Becton Dickinson, Mississauga, ON, Canada) medium was prepared as reported by refs. [21],[50]. Briefly, MHBCA was treated with 10% Chelex® 50-100 mesh (Sigma) and stirred for 6 h at room temperature. The resin was removed by filtration. Divalent Ca^2+ (CaCl2), Mg^2+ (MgCl2), and Zn^2+(ZnSO4), were then added in the iron-depleted medium at 22, 12, and 1 μg/ml respectively. Finally, the pH was adjusted to 7.3, and the medium was sterilized with a 0.2-μm filter. Regular MHBCA (i.e., not treated with Chelex®) was used to compare the inhibitory activity of conjugates in iron-sufficient conditions. The resin used for Chelex treatment was always fresh and had never been regenerated, ensuring consistent iron removal.
# (§5) Minimal inhibitory concentrations (MICs) were performed using a broth microdilution technique according to the Clinical and Laboratory Standards Institute (CLSI) guidelines. MICs were determined in MHBCA and in ID-MHBCA. To check the impact of β-lactamases, MICs in the presence of a β-lactamase inhibitor were also determined. The inhibitor was homogenized at 2X the final concentration and added to the bacterial inoculum just before distributing cells into the wells containing the drug dilutions. The final concentration of each inhibitor was 4 μg/mL for clavulanic acid (tested against K. pneumoniae) and 200 μg/mL for 3-aminophenylboronic acid (tested against P. aeruginosa and A. baumannii).
# E. coli lptD4213 = assay: MIC, hyperpermeable mutant; type: cell-based, Escherichia coli; conditions: Escherichia coli
# Experimental: as §4, §5
# P. aeruginosa ATCC 27853 = assay: MIC, broth microdilution (CLSI); type: cell-based, Pseudomonas aeruginosa
# Experimental: as §4, with “conditions.” for “conditions. The resin used for Chelex treatment was always fresh and had never been regenerated, ensuring consistent iron removal.”
# as §5
# [1] = test system: P. aeruginosa 2302 MexAB, MexCD, MexEF upregulated; assay: MIC, efflux pump overexpressing strain; type: cell-based, Pseudomonas aeruginosa; conditions: Pseudomonas aeruginosa
# Experimental: as §5
# T2 sequence (P0AD68 whole entry): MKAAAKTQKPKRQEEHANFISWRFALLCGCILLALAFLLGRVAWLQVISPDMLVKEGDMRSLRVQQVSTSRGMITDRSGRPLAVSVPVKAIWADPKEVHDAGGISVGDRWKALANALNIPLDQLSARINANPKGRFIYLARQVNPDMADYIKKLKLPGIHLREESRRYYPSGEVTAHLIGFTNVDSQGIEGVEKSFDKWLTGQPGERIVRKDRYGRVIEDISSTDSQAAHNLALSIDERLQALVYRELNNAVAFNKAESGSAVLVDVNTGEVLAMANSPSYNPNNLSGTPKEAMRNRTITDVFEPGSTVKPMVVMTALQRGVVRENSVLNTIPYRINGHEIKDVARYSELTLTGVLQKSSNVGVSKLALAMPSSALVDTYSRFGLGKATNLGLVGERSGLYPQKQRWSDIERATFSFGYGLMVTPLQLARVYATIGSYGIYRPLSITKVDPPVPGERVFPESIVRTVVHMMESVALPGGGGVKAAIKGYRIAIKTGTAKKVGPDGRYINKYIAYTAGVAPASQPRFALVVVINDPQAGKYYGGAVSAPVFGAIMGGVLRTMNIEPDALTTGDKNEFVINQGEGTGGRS
# T1 sequence (P0AD65 whole entry): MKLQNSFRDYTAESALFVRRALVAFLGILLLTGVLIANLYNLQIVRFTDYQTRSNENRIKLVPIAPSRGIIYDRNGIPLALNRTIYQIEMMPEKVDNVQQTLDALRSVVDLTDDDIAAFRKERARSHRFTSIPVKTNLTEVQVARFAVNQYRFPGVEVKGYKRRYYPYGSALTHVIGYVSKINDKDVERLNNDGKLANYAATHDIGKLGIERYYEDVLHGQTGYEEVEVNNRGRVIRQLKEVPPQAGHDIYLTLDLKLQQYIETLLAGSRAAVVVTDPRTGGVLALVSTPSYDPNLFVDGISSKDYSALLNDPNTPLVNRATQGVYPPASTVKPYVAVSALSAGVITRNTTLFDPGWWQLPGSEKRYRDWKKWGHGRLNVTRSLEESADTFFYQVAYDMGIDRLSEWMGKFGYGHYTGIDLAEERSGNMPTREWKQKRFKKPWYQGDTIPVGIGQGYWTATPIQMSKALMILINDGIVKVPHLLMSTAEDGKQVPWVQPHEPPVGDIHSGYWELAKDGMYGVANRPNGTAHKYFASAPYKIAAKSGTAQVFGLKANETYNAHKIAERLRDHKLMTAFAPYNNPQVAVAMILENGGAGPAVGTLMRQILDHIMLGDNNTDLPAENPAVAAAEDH
smiles,measurement,setting,value
"O=C(CCC(=O)N(CCCCNC(=O)c1cccc(O)c1O)CCCNC(=O)c1cccc(O)c1O)NCCCCCN(O)C(=O)CCCC(=O)NC(C(=O)NC1C(=O)N2C(C(=O)O)=C(Cl)CSC12)c1ccccc1 (stereo not shown) [MCEF, mixed ligand bis-catechol-mono-hydroxamate-cefaclor]",IC50,PBP2,29.3 ± 2.3 µM
same,"IC50 value ratio βL/SID-βL, PBP3",PBP3; E. coli MC4100,49
same,IC50,"PBP3; read-out: IC50 PBP3, E. coli MC4100 membranes",0.32 ± 0.01 µM
same,MIC,"A. baumannii ATCC 19606; ATCC19606, ID-MHBCA (−), 0 µg/mL supplemental iron, read-out: MIC",0.2 µM
same,MIC,"A. baumannii ATCC 19606; ATCC19606, ID-MHBCA + 0.1 µg/mL supplemental iron, read-out: MIC",1.6 µM
same,MIC,"A. baumannii ATCC 19606; ATCC19606, ID-MHBCA + 1 µg/mL supplemental iron, read-out: MIC",> 6.3 µM
same,MIC,"A. baumannii ATCC 19606; ATCC19606, ID-MHBCA, + 200 μg/mL APB, read-out: MIC with β-lactamase inhibitor (βI)",0.012 µM
same,MIC,"A. baumannii ATCC 19606; ATCC19606, MHBCA (+), no inhibitor, read-out: MIC",1.6 µM
same,MIC,"A. baumannii ATCC 19606; ATCC19606, MHBCA, + 200 μg/mL APB, read-out: MIC with β-lactamase inhibitor (βI)",0.4 µM
same,MIC ratio unconjugated β-lactam/conjugate,A. baumannii ATCC 19606; ID-MHBCA,>1024
same,MIC ratio 0/1,"A. baumannii ATCC 19606; ID-MHBCA, 0 and 1 µg/mL supplemental iron (Table S2)",> 32
same,MIC ratio 1/0,"A. baumannii ATCC 19606; ID-MHBCA, 1 versus 0 µg/mL supplemental iron (peer review file table)",> 32
same,MIC ratio unconjugated β-lactam/conjugate,A. baumannii ATCC 19606; MHBCA,>128
same,MIC in combination with PAβN,"A. baumannii ATCC 19606; MHBCA, + 25 µg/mL PAβN",> 6.3 µM
same,MIC,"E. coli lptD4213; LPTD4213, lptD4213, ID-MHBCA (−)",1.6 µM
same,MIC,"E. coli lptD4213; LPTD4213, lptD4213, MHBCA (+)",1.6 µM
same,MIC ratio unconjugated β-lactam/conjugate,P. aeruginosa ATCC 27853; ID-MHBCA,No activity
same,MIC,"P. aeruginosa ATCC 27853; ID-MHBCA (−), 0 µg/mL supplemental iron, read-out: MIC",>200 µM
same,MIC ratio unconjugated β-lactam/conjugate,P. aeruginosa ATCC 27853; MHBCA,No activity
same,MIC,"P. aeruginosa ATCC 27853; MHBCA (+), no inhibitor, listed as Mix-CEF, read-out: MIC",> 200 µM
same,MIC,"P. aeruginosa ATCC 27853; MHBCA (+), no inhibitor, read-out: MIC",>200 µM
same,MIC in combination with PAβN,"P. aeruginosa ATCC 27853; MHBCA, + 25 µg/mL PAβN",> 200 µM
same,MIC,"P. aeruginosa ATCC 27853; Pseudomonas aeruginosa, ATCC27853, ID-MHBCA (−), 0 µg/mL supplemental iron, read-out: MIC",> 200 µM
same,MIC,"P. aeruginosa ATCC 27853; Pseudomonas aeruginosa, ATCC27853, ID-MHBCA + 1 µg/mL supplemental iron, read-out: MIC",> 200 µM
same,MIC,"P. aeruginosa ATCC 27853; Pseudomonas aeruginosa, ATCC27853, ID-MHBCA, + 200 μg/mL APB, read-out: MIC with β-lactamase inhibitor (βI)",> 200 µM
same,MIC,"P. aeruginosa ATCC 27853; Pseudomonas aeruginosa, ATCC27853, MHBCA (+), no inhibitor, read-out: MIC",> 200 µM
same,MIC,"P. aeruginosa ATCC 27853; Pseudomonas aeruginosa, ATCC27853, MHBCA, + 200 μg/mL 3-aminophenylboronic acid (APB), read-out: MIC with β-lactamase inhibitor (βI)",> 200 µM
same,MIC,[1],> 100 µM
